Assay results reported in ChEMBL document CHEMBL1201862, “PubChem BioAssay data set” (2004).
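Interpolation was linear, between the two tested concentrations surrounding the appropriate level; five concentrations were tested over 48 hours in 96-well plates. GI50: concentration for 50% inhibition of growth.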 Active and inactive are the calls of the source. No stated cut-off is given here; in the data, active = GI50 up to about 1.1 µM and inactive = higher.

What was measured:
Experiment in all cases: NCI tumour cell line growth inhibition, 48 h
DU-145 = system: DU-145
HCT-15 = system: HCT-15
HL-60 = system: HL-60
IGROV-1 = system: IGROV-1
MCF7 = system: MCF7
MDA-MB-435 = system: MDA-MB-435
MOLT-4 = system: MOLT-4
NCI-H460 = system: NCI-H460
OVCAR-5 = system: OVCAR-5
SF-295 = system: SF-295
SF-539 = system: SF-539
SNB-75 = system: SNB-75
T47D = system: T47D
U-251 = system: U-251
UACC-62 = system: UACC-62
HCC 2998 = system: HCC 2998
HOP-62 = system: HOP-62
SK-MEL-28 = system: SK-MEL-28

SMILES	GI50 (DU-145)	GI50 (HCT-15)	GI50 (HL-60)	GI50 (IGROV-1)	GI50 (MCF7)	GI50 (MDA-MB-435)	GI50 (MOLT-4)	GI50 (NCI-H460)	GI50 (OVCAR-5)	GI50 (SF-295)	GI50 (SF-539)	GI50 (SNB-75)	GI50 (T47D)	GI50 (U-251)	GI50 (UACC-62)	GI50 (HCC 2998)	GI50 (HOP-62)	GI50 (SK-MEL-28)
COc1ccc(NC(C)=O)c(C(=O)CCNC(C)=O)c1	> 100 µM (inactive)	> 100 µM	> 100 µM (inactive)	> 100 µM (inactive)	> 100 µM (inactive)	> 100 µM (inactive)	> 100 µM (inactive)	> 100 µM (inactive)	> 100 µM (inactive)	> 100 µM (inactive)	> 100 µM (inactive)	> 100 µM (inactive)	> 100 µM (inactive)	> 100 µM (inactive)	> 100 µM (inactive)	–	–	–
C=CCC1(C(=O)OC)CCC/C(=N\O)C1 (configuration not stated)	> 10 µM (inactive)	> 10 µM	> 10 µM (inactive)	> 10 µM (inactive)	> 10 µM (inactive)	> 10 µM (inactive)	> 10 µM (inactive)	–	–	> 10 µM (inactive)	> 10 µM (inactive)	> 10 µM (inactive)	> 10 µM (inactive)	> 10 µM (inactive)	> 10 µM (inactive)	> 10 µM (inactive)	> 10 µM (inactive)	> 10 µM (inactive)
CCN(CC)CCCNc1nc(=O)[nH]c(C)c1C(=O)Nc1cccc2cc3ccccc3cc12	> 100 µM (inactive)	> 100 µM	> 100 µM (inactive)	> 100 µM (inactive)	> 100 µM (inactive)	> 100 µM (inactive)	> 100 µM (inactive)	–	> 100 µM (inactive)	> 100 µM (inactive)	> 100 µM (inactive)	> 100 µM (inactive)	> 100 µM (inactive)	> 100 µM (inactive)	> 100 µM (inactive)	> 100 µM (inactive)	> 100 µM (inactive)	> 100 µM (inactive)
Cc1c(NC(=S)NN)c(=O)n(-c2ccccc2)n1C	> 100 µM (inactive)	> 100 µM	> 100 µM (inactive)	> 100 µM (inactive)	> 100 µM (inactive)	> 100 µM (inactive)	> 100 µM (inactive)	> 100 µM (inactive)	> 100 µM (inactive)	> 100 µM (inactive)	> 100 µM (inactive)	20 µM (inactive)	> 100 µM (inactive)	> 100 µM (inactive)	> 100 µM (inactive)	–	> 100 µM (inactive)	> 100 µM (inactive)
O=C(c1ccccc1)C1C[C@H]2CO[C@H](c3ccccc3)N2C1=O (some centres not stated)	> 100 µM (inactive)	> 100 µM	–	> 100 µM (inactive)	> 100 µM (inactive)	> 100 µM (inactive)	97.9 µM (inactive)	> 100 µM (inactive)	> 100 µM (inactive)	> 100 µM (inactive)	> 100 µM (inactive)	> 100 µM (inactive)	> 100 µM (inactive)	> 100 µM (inactive)	> 100 µM (inactive)	> 100 µM (inactive)	–	> 100 µM (inactive)
CC1=C[P+](c2ccccc2)(c2ccccc2)c2ccccc2O1	19.2 µM (inactive)	> 100 µM	2.06 µM (inactive)	5.28 µM (inactive)	5.05 µM (inactive)	2.47 µM (inactive)	2.15 µM (inactive)	20.5 µM (inactive)	17.4 µM (inactive)	13 µM (inactive)	7.89 µM (inactive)	11.4 µM (inactive)	0.597 µM (active)	3.65 µM (inactive)	8 µM (inactive)	–	11.6 µM (inactive)	7.01 µM (inactive)
COc1ccc2oc(=O)c(-c3cc4c(c(C)n3)c(=O)oc3ccc(OC)cc34)cc2c1	> 100 µM (inactive)	> 100 µM	> 100 µM (inactive)	> 100 µM (inactive)	> 100 µM (inactive)	> 100 µM (inactive)	> 100 µM (inactive)	> 100 µM (inactive)	–	95.7 µM (inactive)	93.5 µM (inactive)	> 100 µM (inactive)	> 100 µM (inactive)	> 100 µM (inactive)	35.8 µM (inactive)	> 100 µM (inactive)	30.4 µM (inactive)	> 100 µM (inactive)
COc1ccc(C(C#N)NCCCCCCNC(C#N)c2ccc(OC)cc2)cc1 (configuration not stated)	> 100 µM (inactive)	> 100 µM	> 100 µM (inactive)	> 100 µM (inactive)	> 100 µM (inactive)	> 100 µM (inactive)	> 100 µM (inactive)	–	> 100 µM (inactive)	> 100 µM (inactive)	> 100 µM (inactive)	> 100 µM (inactive)	> 100 µM (inactive)	> 100 µM (inactive)	> 100 µM (inactive)	> 100 µM (inactive)	> 100 µM (inactive)	> 100 µM (inactive)
